Results as given in patent publication US8420122B2, “Process for the precipitation and isolation of 6,6-dimethyl-3-aza-bicyclo [3.1.0] hexane-amide compounds by controlled precipitation and pharmaceutical formulations containing same” (Merck Sharp & Dohme Corp., priority 2006, dated 2013).
Like-named read-outs stand apart in the source and are kept apart here.

Tests used:
[1] = Aggregated / median particle size and size distribution; assay type: physicochemical; settings: for Aggregated particle size: additional runs A, B, C (mixing Tee)
Method: As used herein “median precipitated particle size” “median aggregate particle size” and “particulate size distribution” are determined by Laser Diffraction […] measurements.

[2] = BET surface area (bulk surface area); assay type: physicochemical; settings: for bulk surface area after distillation step: final granulate product
[3] = Comparative PK Results-2: Day 5 multiple-dose pharmacokinetics; assay type: in vivo, human; settings: for Tmax: read-out: Tmax, median; for half-life: read-out: t1/2, mean (converted)
Method: Pharmacokinetic samples for the determination of plasma concentrations of the compound of Formula B were collected on Day 5 of each period. PK samples were collected predose (0 hour), 1, 2, 3, 4, 6, 8, 12, and 24-hours postdose.

[4] = Chord length by Focused Beam Reflectance Measurements (FBRM); assay type: physicochemical; settings: Example I first run, slurry, 0.41 M MTBE solution, 20° C.
Method: (§1) For the Examples which follow, particle size information was acquired by measuring the particulate material produced in the slurry using Focused Beam Reflectance Measurements (FBRM) performed with a Lasentec probe from Mettler Toledo in accordance with manufacturers directions for obtaining such measurements. Measurements were carried out on a sample of the slurry as obtained from the holding tank prior to vacuum distillation. The procedure and equipment can measure particulate materials over a size range of from 1 micron up to 1000 microns. Primary particle size was characterized qualitatively by Scanning Electron Microscopy (SEM). Changes in particle aggregation and aggregate morphology were observed by SEM under various conditions to determine softening point of the precipitated material. For SEM determination of softening point, a sample of the slurry was obtained periodically at each temperature interval as the slurry was heated. The solids in the sample were collected by filtration, dried under vacuum for 1 to 2 hours and the dried sample was examined using conventional SEM. […] The softening point was inferred from the sampling temperature at which the precipitate began to show loss of nodular particle appearance when examined by SEM in this manner.

[5] = Primary particle size and morphology by Scanning Electron Microscopy (SEM); assay type: physicochemical
Method: As used herein “primary particle” is the initially formed particles nucleated by combining a solution and anti-solvent. “Primary particle size” refers to the size of a primary particle and is determined by Scanning Electron Microscopy (SEM).
For the Examples which follow, particle size information was acquired by measuring the particulate material produced in the slurry using Focused Beam Reflectance Measurements (FBRM) performed with a Lasentec probe from Mettler Toledo in accordance with manufacturers directions for obtaining such measurements. Measurements were carried out on a sample of the slurry as obtained from the holding tank prior to vacuum distillation. The procedure and equipment can measure particulate materials over a size range of from 1 micron up to 1000 microns. Primary particle size was characterized qualitatively by Scanning Electron Microscopy (SEM). Changes in particle aggregation and aggregate morphology were observed by SEM under various conditions to determine softening point of the precipitated material. For SEM determination of softening point, a sample of the slurry was obtained periodically at each temperature interval as the slurry was heated. The solids in the sample were collected by filtration, dried under vacuum for 1 to 2 hours and the dried sample was examined using conventional SEM. […]

[6] = Bulk density / tapped density; assay type: physicochemical
Method: The particulate prepared above was recovered by pressure filtration and vacuum dried under house vacuum (approximately 60 to 70 torr) for 2 hours at 25 C followed by 8 hours of house vacuum at 35 C. The product was finish-dried at 45 C under house vacuum for an additional 16 hours. The dried particulate was evaluated and found to have a primary particle size ranging from less than 1 micron up to about 2 microns. The specific surface area (BET absorption method) was determined to be about 19.11 m2/g. The bulk density of isolated material was determined by weighing a 25 ml (unpacked) sample.

[7] = Softening point of precipitate (FBRM during controlled heating); assay type: physicochemical
Method: as §1
Verified by SEM observations, it was shown also that softening point could be determined from FBRM measurements (taken in accordance with manufactures instructions) made on a sample of the slurry undergoing controlled heating. […] FBRM measurements were obtained continuously during the heating cycle and the softening point was determined to be the temperature corresponding to the maxima in the particle count curve over the heating regime.
A precipitate slurry of the compound of Formula B was prepared by setting the flow control valves to supply 3400 ml/min. of n-heptane and 840 ml/min of the MTBE/compound of Formula B solution. […] An aliquot of the slurry thus produced was also evaluated to determine the softening point of the precipitate therein. […] In this manner the softening temperature was determined to be at 36.2 C.

[8] = test system: QT/QTc intervals; test: QT/QTc study, mean QTcF change from time-matched baseline; settings: for QT interval (mean QTcF change from time-matched baseline): Day 5, relative to placebo
Method: A study was conducted to evaluate the effect of both a therapeutic (800 mg TID) and a supratherapeutic (1200 mg TID) dose of the compound of Formula B at steay-state on QT/QTc intervals, as measured by mean maximum change from time-matched baseline ECG recordings compared to placebo.
Thirty-six subjects who met entry criteria received one of four study treatments for Days 1 to 5 of each treatment period. This study was conducted in a 4-way crossover manner so that subjects were randomized to receive the 4 study treatments in one of four sequences. Prior to treatment crossover, subjects completed an approximately 1-week outpatient washout period.

[9] = additional runs A, B, C, precipitate before distillation
[10] = 800 mg TID, Day 5, healthy subjects, n = 31
[11] = human, plasma, oral, 800 mg TID, Day 5, healthy subjects, n = 31
[12] = human, plasma, oral, 1200 mg TID, Day 5, healthy subjects, n = 35
[13] = Example I first run, dried particulate
[14] = Example I second run, isolated material
[15] = Comparative Example I, stirred batch reactor

Q: For CC(C)(C)NC(=O)NC(C(=O)N1CC2C([C@H]1C(=O)NC(CC1CCC1)C(=O)C(N)=O)C2(C)C)C(C)(C)C (stereo partly shown) [Example A1], which Aggregated particle size [1] is on record?
A: Its Aggregated particle size is 10-20 microns.

Q: And the “BET Surface area” value [2, 9]?
A: The value was 30.19 m^2/g.

Q: Which Aggregated particle size [1] does the source give for CC(C)(C)NC(=O)NC(C(=O)N1CC2C([C@H]1C(=O)NC(CC1CCC1)C(=O)C(N)=O)C2(C)C)C(C)(C)C (stereo partly shown) [Example A2] here?
A: Its Aggregated particle size is 10-20 microns.

Q: And the “BET Surface area” value [2, 9]?
A: Its value is 16.44 m^2/g.

Q: With CC(C)(C)NC(=O)NC(C(=O)N1CC2C([C@H]1C(=O)NC(CC1CCC1)C(=O)C(N)=O)C2(C)C)C(C)(C)C (stereo partly shown) [Example A3] as the molecule, how does the Aggregated particle size [1] read?
A: The Aggregated particle size was 20-30 microns.

Q: And the “BET Surface area” value [2, 9]?
A: Its value is 17.41 m^2/g.

Q: For CC(C)(C)NC(=O)NC(C(=O)N1CC2C([C@H]1C(=O)NC(CC1CCC1)C(=O)C(N)=O)C2(C)C)C(C)(C)C (stereo partly shown) [Example B1], which Aggregated particle size [1] is on record?
A: Its Aggregated particle size is 10-20 microns.

Q: And the “BET Surface area” value [2, 9]?
A: The value was 32.75 m^2/g.

Q: For CC(C)(C)NC(=O)NC(C(=O)N1CC2C([C@H]1C(=O)NC(CC1CCC1)C(=O)C(N)=O)C2(C)C)C(C)(C)C (stereo partly shown) [Example B2], which Aggregated particle size [1] is on record?
A: Its Aggregated particle size is 10-20 microns.

Q: What about the “BET Surface area” value [2, 9] of the same molecule?
A: Its value is 25.68 m^2/g.

Q: For CC(C)(C)NC(=O)NC(C(=O)N1CC2C([C@H]1C(=O)NC(CC1CCC1)C(=O)C(N)=O)C2(C)C)C(C)(C)C (stereo partly shown) [Example B3], which Aggregated particle size [1] is on record?
A: Its Aggregated particle size is 10-20 microns.

Q: What about the “BET Surface area” value [2, 9] of the same molecule?
A: Its value is 32.00 m^2/g.

Q: For CC(C)(C)NC(=O)NC(C(=O)N1CC2C([C@H]1C(=O)NC(CC1CCC1)C(=O)C(N)=O)C2(C)C)C(C)(C)C (stereo partly shown) [Example B4], which “BET Surface area” value [2, 9] is on record?
A: The value was 24.24 m^2/g.

Q: For CC(C)(C)NC(=O)NC(C(=O)N1CC2C([C@H]1C(=O)NC(CC1CCC1)C(=O)C(N)=O)C2(C)C)C(C)(C)C (stereo partly shown) [Example C1], which Aggregated particle size [1] is on record?
A: The Aggregated particle size was 0.25-25.5 microns.

Q: What about the “BET Surface area” value [2, 9] of the same molecule?
A: Its value is 24.85 m^2/g.

Q: What about the “bulk surface area after distillation step” value [2] of the same molecule?
A: The value was 6.13 m^2/g.

Q: With CC(C)(C)NC(=O)NC(C(=O)N1CC2C([C@H]1C(=O)NC(CC1CCC1)C(=O)C(N)=O)C2(C)C)C(C)(C)C (stereo partly shown) [Example C2] as the molecule, how does the Aggregated particle size [1] read?
A: The Aggregated particle size was 0.25-18 microns.

Q: What about the “BET Surface area” value [2, 9] of the same molecule?
A: The value was 32.41 m^2/g.

Q: And the “bulk surface area after distillation step” value [2]?
A: The value was 6.31 m^2/g.

Q: With CC(C)(C)NC(=O)NC(C(=O)N1CC2C([C@H]1C(=O)NC(CC1CCC1)C(=O)C(N)=O)C2(C)C)C(C)(C)C (stereo partly shown) [Example C3] as the molecule, how does the Aggregated particle size [1] read?
A: Its Aggregated particle size is 10-20 microns.

Q: With CC(C)(C)NC(=O)NC(C(=O)N1CC2C([C@H]1C(=O)NC(CC1CCC1)C(=O)C(N)=O)C2(C)C)C(C)(C)C (stereo partly shown) [Example C4] as the molecule, how does the Aggregated particle size [1] read?
A: Its Aggregated particle size is 10-20 microns.

Q: Which results are given for CC(C)(C)NC(=O)NC(C(=O)N1CC2C([C@H]1C(=O)NC(CC1CCC1)C(=O)C(N)=O)C2(C)C)C(C)(C)C (stereo partly shown) [compound of Formula B, 3-[2-(3-tert-Butyl-ureido)-3,3-dimethyl-butyryl]-6,6-dimethyl-3-aza-bicyclo[3.1.0]hexane-2-carboxylic acid (2-carbamoyl-1-cyclobutylmethyl-2-oxo-ethyl)-amide]?
A: CL/F, mean [3, 10]: 158 L/h; Cmin, mean [3, 10]: 61.9 ng/mL; CL/F, mean ([3]; 1200 mg TID, Day 5, healthy subjects, n = 35): 196 L/h; AUC ([3]; human, plasma, oral, 800 mg, 800 mg TID, Day 5, healthy subjects, n = 31, read-out: AUC(τ), mean): 5320 ng·h/mL; Cmax ([3]; human, plasma, oral, 800 mg, 800 mg TID, Day 5, healthy subjects, n = 31, sum of diastereomers, read-out: Cmax, mean): 1690 ng/mL; AUC ([3]; human, plasma, oral, 800 mg, 800 mg TID, Day 5, read-out: Individual AUC(τ) values, range): 3250 to 8900 ng·h/mL; Cmax ([3]; human, plasma, oral, 800 mg, 800 mg TID, Day 5, read-out: Individual Cmax values, range): 1150 to 2500 ng/mL; AUC ([3]; human, plasma, oral, 1200 mg, 1200 mg TID, Day 5, healthy subjects, n = 35, read-out: AUC(τ), mean): 6500 ng·h/mL; Cmax ([3]; human, plasma, oral, 1200 mg, 1200 mg TID, Day 5, healthy subjects, n = 35, sum of diastereomers, read-out: Cmax, mean): 1940 ng/mL; AUC ([3]; human, plasma, oral, 1200 mg, 1200 mg TID, Day 5, read-out: Individual AUC(τ) values, range): 2500 to 9400 ng·h/mL; Cmax ([3]; human, plasma, oral, 1200 mg, 1200 mg TID, Day 5, read-out: Individual Cmax values, range): 1100 to 3150 ng/mL; Vd/F [3, 11]: 530 L; Tmax [3, 11]: 2 h; half-life [3, 11]: 2.31 h; Vd/F [3, 12]: 879 L; concentration at 5 day ([3]; human, plasma, oral, 1200 mg TID, Day 5, healthy subjects, n = 35, read-out: Cmin, mean): 79.9 ng/mL; Tmax [3, 12]: 2 h; half-life [3, 12]: 3.01 h; average chord length of agglomerated particulate [4]: 15.8 microns; primary particle size [5, 13]: less than 1 micron up to about 2 microns; primary particle size ([5]; Example I second run, after distillation, isolated material): less than 1 micron; agglomerated average particle size [1, 14]: 11 microns; median particulate size ([1]; Example II precipitate): 1.57 microns; median particulate size ([1]; Example III precipitate): 1.46 microns; BET Surface area [2, 15]: 1.76 m^2/g; specific surface area (BET absorption method) [2, 13]: about 19.11 m2/g; average bulk surface area (BET) [2, 14]: about 10.3 m^2/g; bulk surface area ([2]; Example II precipitate): 8.14 m^2/g; bulk surface area ([2]; Example III precipitate): 7.2 m^2/g; bulk density [6, 15]: 0.16 g/mL; bulk density ([6]; Example I first run, isolated material): 0.3 g/mL; bulk density average ([6]; Example I second run, isolated particulate): 0.191 g/cm³; bulk density ([6]; Example II precipitate): 0.23 g/mL; bulk density ([6]; Example III precipitate): 0.18 g/mL; softening point of the wet cake [7, 15]: below 30 °C; softening temperature ([7]; Example I first run, slurry aliquot heated 1 C/min): 36.2 C; softening point ([7]; Example I second run, slurry distilled to about 35% of original volume): 51.6 °C; QT interval (mean QTcF change from time-matched baseline) ([8]; 800 mg therapeutic dose (LD) TID): does not prolong the QT interval; QT interval (mean QTcF change from time-matched baseline) ([8]; 1200 mg supratherapeutic dose (HD) TID): does not prolong the QT interval

Q: For COc1c(N2C[C@@H]3CCCN[C@@H]3C2)c(F)cc2c(=O)c(C(=O)O)cn(C3CC3)c12 [moxifloxacin, reference compound], which “QT/QTc interval (mean QTcF change from time-matched baseline)” value ([8]; 400 mg QD, positive control) is on record?
A: The value was “lengthened QT/QTc interval”.
